Data reported in patent US9708314B2, “Heterocyclic amide compound” (NISSAN CHEMICAL INDUSTRIES, LTD., priority 2013, dated 2017).

What was measured:
Assay type in all cases: in vivo
[1] = tested on: Cyperus difformis; test: Test Example 3: herbicidal effect by application to foliage (Wagner pot, water depth 0.1-0.5 cm); conditions: Nineteenth Table, application herbicide amount 320 g/ha; for E (herbicidal effect grade): application to foliage
Outline: (§1)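 Three weeks after spraying, each species was graded 0–5 for herbicidal ratio, 5 being 90% or more. Application: water-diluted emulsifiable concentrate at a fixed g/ha to foliage of 14-day-old greenhouse (25–30 °C) plants in alluvial soil.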

[2] = tested on: Echinochloa crus-galli var. crus-galli; test: as above; conditions: Nineteenth Table, application herbicide amount 320 g/ha; for H (herbicidal effect grade): application to foliage
Outline: as §1

[3] = tested on: Leptochloa chinensis; test: as above; conditions: Nineteenth Table, application herbicide amount 320 g/ha; for D (herbicidal effect grade): application to foliage
Outline: as §1

[4] = tested on: directly sowed Oryza sativa; test: Test Example 3: effect on crop by application to foliage (Wagner pot, water depth 0.1-0.5 cm); conditions: Nineteenth Table, application herbicide amount 320 g/ha; for b (effect on crop grade): application to foliage
Outline: as §1

[5] = tested on: Abutilon theophrasti; test: Test Example 4: herbicidal effect by application to foliage (diluvial soil, plastic box)
Outline: (§2)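 Greenhouse plants (25° C. to 30° C., 14 d, diluvial soil) receive a foliar spray of water-diluted emulsifiable formulation at defined g/ha. Grading after 3 weeks uses a six-step herbicidal-ratio scale, with 4 covering 70% to <90% and 1 covering 5% to <20%.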

[6] = tested on: Alopecurus myosuroides; test: as above
Outline: as §2

[7] = tested on: Amaranthus retroflexus; test: as above
Outline: as §2

[8] = tested on: Apera spica-venti.; test: as above
Outline: as §2

[9] = tested on: Avena fatua; test: as above
Outline: as §2

[10] = tested on: Chenopodium album; test: as above
Outline: as §2

[11] = tested on: Digitaria ciliaris; test: as above
Outline: as §2

[12] = tested on: Echinochloa crus-galli var. crus-galli; test: as above
Outline: as §2

[13] = tested on: Galium spurium; test: as above
Outline: as §2

[14] = tested on: Lolium multiflorum Lam.; test: as above
Outline: as §2

[15] = tested on: Setaria viridis; test: as above
Outline: as §2

[16] = tested on: Stellaria media; test: as above
Outline: as §2

[17] = tested on: Veronica persica; test: as above
Outline: as §2

[18] = tested on: Beta vulgaris ssp. vulgaris; test: Test Example 4: effect on crop by application to foliage (diluvial soil, plastic box)
Outline: as §2

[19] = tested on: Brassica campestris L.; test: as above
Outline: as §2

[20] = tested on: Glycine max; test: as above
Outline: as §2

[21] = tested on: Triticum aestivum; test: as above
Outline: as §2

[22] = tested on: Zea mays; test: as above
Outline: as §2

[23] = tested on: directly sowed Oryza sativa; test: as above
Outline: as §2

[24] = application to foliage, 320 g/ha
[25] = application to foliage, application herbicide amount 320 g/ha

Structure (SMILES): CCn1ncnc1NC(=O)c1ccc(C(F)(F)F)n2c(C(C)C)nnc12 [4-002]
- E (herbicidal effect grade) [1]: 0 (Herbicidal ratio of 5% or less (almost no effect))
- H (herbicidal effect grade) [2]: 0 (Herbicidal ratio of 5% or less (almost no effect))
- D (herbicidal effect grade) [3]: 4 (Herbicidal ratio of 70% or more and less than 90%)
- b (effect on crop grade) [4]: 0 (Herbicidal ratio of 5% or less (almost no effect))
- herbicidal effect, M (Abutilon theophrasti) [5, 24]: 5 (Herbicidal ratio of 90% or more (almost completely withered))
- herbicidal effect, J (Alopecurus myosuroides) [6, 24]: 0 (Herbicidal ratio of 5% or less (almost no effect))
- herbicidal effect, N (Amaranthus retroflexus) [7, 24]: 4 (Herbicidal ratio of 70% or more and less than 90%)
- herbicidal effect, L (Apera spica-venti.) [8, 24]: 0 (Herbicidal ratio of 5% or less (almost no effect))
- herbicidal effect, I (Avena fatua) [9, 24]: 1 (Herbicidal ratio of 5% or more and less than 20%)
- herbicidal effect, O (Chenopodium album) [10, 24]: 4 (Herbicidal ratio of 70% or more and less than 90%)
- herbicidal effect, F (Digitaria ciliaris) [11, 24]: 1 (Herbicidal ratio of 5% or more and less than 20%)
- herbicidal effect, H (Echinochloa crus-galli var. crus-galli) [12, 24]: 2 (Herbicidal ratio of 20% or more and less than 40%)
- herbicidal effect, Q (Galium spurium) [13, 24]: 1 (Herbicidal ratio of 5% or more and less than 20%)
- herbicidal effect, K (Lolium multiflorum Lam.) [14, 24]: 0 (Herbicidal ratio of 5% or less (almost no effect))
- herbicidal effect, G (Setaria viridis) [15, 24]: 1 (Herbicidal ratio of 5% or more and less than 20%)
- herbicidal effect, P (Stellaria media) [16, 24]: 3 (Herbicidal ratio of 40% or more and less than 70%)
- herbicidal effect, R (Veronica persica) [17, 24]: 1 (Herbicidal ratio of 5% or more and less than 20%)
- effect on crop, f (Beta vulgaris ssp. vulgaris) [18, 24]: 0 (Herbicidal ratio of 5% or less (almost no effect))
- effect on crop, g (Brassica campestris L.) [19, 24]: 0 (Herbicidal ratio of 5% or less (almost no effect))
- effect on crop, c (Glycine max) [20, 24]: 0 (Herbicidal ratio of 5% or less (almost no effect))
- effect on crop, e (Triticum aestivum) [21, 24]: 0 (Herbicidal ratio of 5% or less (almost no effect))
- effect on crop, b (Zea mays) [22, 24]: 0 (Herbicidal ratio of 5% or less (almost no effect))
- effect on crop, d (directly sowed Oryza sativa) [23, 24]: 1 (Herbicidal ratio of 5% or more and less than 20%)

Structure (SMILES): Cn1nnnc1NC(=O)c1ccc(C(F)(F)F)n2c(CS(=O)(=O)CC(F)(F)F)nnc12 [2-036]
- E (herbicidal effect grade) [1]: 4 (Herbicidal ratio of 70% or more and less than 90%)
- H (herbicidal effect grade) [2]: 4 (Herbicidal ratio of 70% or more and less than 90%)
- D (herbicidal effect grade) [3]: 5 (Herbicidal ratio of 90% or more (almost completely withered))
- b (effect on crop grade) [4]: 1 (Herbicidal ratio of 5% or more and less than 20%)
- M (Abutilon theophrasti) herbicidal effect grade ([5]; foliage application, 320 g/ha): 5 (Herbicidal ratio of 90% or more (almost completely withered))
- J (Alopecurus myosuroides) herbicidal effect grade ([6]; foliage application, 320 g/ha): 0 (Herbicidal ratio of 5% or less (almost no effect))
- N (Amaranthus retroflexus) herbicidal effect grade ([7]; foliage application, 320 g/ha): 5 (Herbicidal ratio of 90% or more (almost completely withered))
- L (Apera spica-venti.) herbicidal effect grade ([8]; foliage application, 320 g/ha): 3 (Herbicidal ratio of 40% or more and less than 70%)
- I (Avena fatua) herbicidal effect grade ([9]; foliage application, 320 g/ha): 1 (Herbicidal ratio of 5% or more and less than 20%)
- O (Chenopodium album) herbicidal effect grade ([10]; foliage application, 320 g/ha): 5 (Herbicidal ratio of 90% or more (almost completely withered))
- F (Digitaria ciliaris) herbicidal effect grade ([11]; foliage application, 320 g/ha): 5 (Herbicidal ratio of 90% or more (almost completely withered))
- H (Echinochloa crus-galli var. crus-galli) herbicidal effect grade ([12]; foliage application, 320 g/ha): 5 (Herbicidal ratio of 90% or more (almost completely withered))
- Q (Galium spurium) herbicidal effect grade ([13]; foliage application, 320 g/ha): 4 (Herbicidal ratio of 70% or more and less than 90%)
- K (Lolium multiflorum Lam.) herbicidal effect grade ([14]; foliage application, 320 g/ha): 0 (Herbicidal ratio of 5% or less (almost no effect))
- G (Setaria viridis) herbicidal effect grade ([15]; foliage application, 320 g/ha): 4 (Herbicidal ratio of 70% or more and less than 90%)
- P (Stellaria media) herbicidal effect grade ([16]; foliage application, 320 g/ha): 5 (Herbicidal ratio of 90% or more (almost completely withered))
- R (Veronica persica) herbicidal effect grade ([17]; foliage application, 320 g/ha): 4 (Herbicidal ratio of 70% or more and less than 90%)
- f (Beta vulgaris ssp. vulgaris) effect on crop grade ([18]; foliage application, 320 g/ha): 5 (Herbicidal ratio of 90% or more (almost completely withered))
- g (Brassica campestris L.) effect on crop grade ([19]; foliage application, 320 g/ha): 3 (Herbicidal ratio of 40% or more and less than 70%)
- c (Glycine max) effect on crop grade ([20]; foliage application, 320 g/ha): 0 (Herbicidal ratio of 5% or less (almost no effect))
- e (Triticum aestivum) effect on crop grade ([21]; foliage application, 320 g/ha): 0 (Herbicidal ratio of 5% or less (almost no effect))
- b (Zea mays) effect on crop grade ([22]; foliage application, 320 g/ha): 0 (Herbicidal ratio of 5% or less (almost no effect))
- d (directly sowed Oryza sativa) effect on crop grade ([23]; foliage application, 320 g/ha): 2 (Herbicidal ratio of 20% or more and less than 40%)

Structure (SMILES): Cc1nnc(NC(=O)c2ccc(C(F)(F)F)n3c(COc4ccccc4)nnc23)o1 [1-025]
- E (Cyperus difformis) herbicidal ratio grade [1]: 2 (Herbicidal ratio of 20% or more and less than 40%)
- H (Echinochloa crus-galli var. crus-galli) herbicidal ratio grade [2]: 4 (Herbicidal ratio of 70% or more and less than 90%)
- D (Leptochloa chinensis) herbicidal ratio grade [3]: 3 (Herbicidal ratio of 40% or more and less than 70%)
- b (directly sowed Oryza sativa) effect on crop grade [4]: 2 (Herbicidal ratio of 20% or more and less than 40%)
- M (Abutilon theophrasti) herbicidal effect [5, 25]: 5 (Herbicidal ratio of 90% or more (almost completely withered))
- J (Alopecurus myosuroides) herbicidal effect [6, 25]: 0 (Herbicidal ratio of 5% or less (almost no effect))
- N (Amaranthus retroflexus) herbicidal effect [7, 25]: 3 (Herbicidal ratio of 40% or more and less than 70%)
- L (Apera spica-venti.) herbicidal effect [8, 25]: 0 (Herbicidal ratio of 5% or less (almost no effect))
- I (Avena fatua) herbicidal effect [9, 25]: 0 (Herbicidal ratio of 5% or less (almost no effect))
- O (Chenopodium album) herbicidal effect [10, 25]: 5 (Herbicidal ratio of 90% or more (almost completely withered))
- F (Digitaria ciliaris) herbicidal effect [11, 25]: 3 (Herbicidal ratio of 40% or more and less than 70%)
- H (Echinochloa crus-galli var. crus-galli) herbicidal effect [12, 25]: 4 (Herbicidal ratio of 70% or more and less than 90%)
- Q (Galium spurium) herbicidal effect [13, 25]: 3 (Herbicidal ratio of 40% or more and less than 70%)
- K (Lolium multiflorum Lam.) herbicidal effect [14, 25]: 0 (Herbicidal ratio of 5% or less (almost no effect))
- G (Setaria viridis) herbicidal effect [15, 25]: 2 (Herbicidal ratio of 20% or more and less than 40%)
- P (Stellaria media) herbicidal effect [16, 25]: 4 (Herbicidal ratio of 70% or more and less than 90%)
- R (Veronica persica) herbicidal effect [17, 25]: 3 (Herbicidal ratio of 40% or more and less than 70%)
- f (Beta vulgaris ssp. vulgaris) effect on crop [18, 25]: 5 (Herbicidal ratio of 90% or more (almost completely withered))
- g (Brassica campestris L.) effect on crop [19, 25]: 2 (Herbicidal ratio of 20% or more and less than 40%)
- c (Glycine max) effect on crop [20, 25]: 0 (Herbicidal ratio of 5% or less (almost no effect))
- e (Triticum aestivum) effect on crop [21, 25]: 0 (Herbicidal ratio of 5% or less (almost no effect))
- b (Zea mays) effect on crop [22, 25]: 0 (Herbicidal ratio of 5% or less (almost no effect))
- d (directly sowed Oryza sativa) effect on crop [23, 25]: 3 (Herbicidal ratio of 40% or more and less than 70%)
